Assay results: patent US11324798B2, “Materials and methods for treatment of inflammation” (CYTOGEL PHARMA, LLC, priority 2010, dated 2022)
Several values for one entry are separate records, joined by “and”; a condition that tells them apart may be missing. Equal values may be shown once. Entries after “also recorded” stand apart in the source; their conditions may differ.

Assays:
[1] = tested on: mustard oil-induced acute neurogenic inflammation in the paw skin of the rat; experiment: 1% mustard oil-induced plasma protein extravasation in the acutely denervated rat hindpaw skin, Evans blue leakage; format: in vivo; settings: for Evans blue leakage in the rat hindpaw skin / Evans blue leakage in the rat hindpaw skin, Mean: 1% mustard oil; for Evans blue leakage in the rat hindpaw skin: individual paws (rats 1-8, left/right)
Procedure: (§1) For the in vivo rat and mouse experiments, 5.5 ml of the 1 mg/ml stock solution of CYT-1010 was prepared freshly every experimental day with 20% HPCD dissolved in sterile distilled water. […] The vehicle was 20% HPCD dissolved in sterile distilled water. Further dilutions of the compound for the smaller administered doses were made with this vehicle, the 500 μg/ml and 100 μg/ml concentrations looked opalescent and the lower concentrations were clear. In rats 0.1 ml/100 g, in mice 0.1 ml/10 g volumes were administered i.v. 10 min before the induction of the inflammation.
Both hindlegs of the rats were acutely denervated (the sciatic and the saphenous nerves were cut 30 min before the induction of inflammation) under deep sodium thiopental (50 mg/kg i.p.) anaesthesia to avoid central reflexes. Acute neurogenic inflammation in the dorsal skin of the hindpaws was evoked by topical application of 1% mustard oil (allylisothiocianante) dissolved in paraffin oil. Mustard oil in concentrations below 5% selectively stimulates TRPA1 ion channels on capsaicin-sensitive peptidergic nerves and induces the release of pro-inflammatory sensory neuropeptides such as CGRP and substance P, which cause vasodilation and plasma protein extravasation in the innervated area.
CYT-1010 (1, 10, 100 and 1000 μg/kg; 0.1 ml/100 g from the 1, 10, 100 and 1000 μg/ml solutions) was administered i.v. 5 min before the induction of the inflammation by mustard oil smearing. Rats in the control group were treated with the same volume of the vehicle, 20% hydroxypropyl-β-cyclodextrin (dissolved in sterile distilled water). The experimental protocol is also illustrated in FIG. 2.
40 male Wistar rats (220-260 g) altogether were divided into 5 experimental groups: Group 1: 8 vehicle-treated controls (n=8); Group 2: 1 μg/kg CYT-1010 (n=8); Group 3: 10 μg/kg CYT-1010 (n=8); Group 4: 100 μg/kg CYT-1010 (n=8); and Group 5: 1000 μg/kg CYT-1010 (n=8).
This study was undertaken in blocks with 10 rats per occasion. The whole set of data was obtained during 4 days, and there were rats of each group every day.
Extravasation of plasma albumin was measured by the Evans blue leakage method. Evans blue (50 mg/kg) was injected i.v. and neurogenic inflammation was induced 10 min later. Rats were killed by exsanguination 20 min after mustard oil application. The skin of the hindpaws was removed and the extravasated dye was extracted with formamide for 72 h at room temperature for photometric determination at 620 nm. The amount of the accumulated Evans blue, which quantitatively correlates with the intensity of plasma extravasation, was expressed as dye/g wet tissue (Szolcsányi and Barthó 1981; Helyes et al., 1997, 2001, 2006). Each of these publications is incorporated herein by reference in its entirety.
Results are expressed as the mean±s.e.m. and analyzed for statistical significance with one-way ANOVA followed by Dunnett post-hoc test when the data were compared to the control group. In the rat in vivo studies, multiple comparisons were also made with Bonferroni's modified t-test to compare the effects of the different doses to each other. *p<0.05 was considered to be significant.

[2] = Appearance of CYT-1010 preparations in 20% HPCD; format: physicochemical
Procedure: as §1
Stock solution of the 100 μg/ml concentration of CYT-1010 (5.5 ml) was prepared fresh every experimental day with 20% hydroxypropyl-βcyclodextrin (HPCD) dissolved in sterile distilled water, shaken properly and sonicated. The vehicle was 20% HPCD dissolved in sterile distilled water. Further dilutions of the compound for the smaller administered doses were made with this vehicle. The applied concentrations were filtered through a 0.2 μm sterile teflon filter. […] The lower concentrations looked clear immediately. Non-filtered solutions were administered in the same concentrations in the parallel groups for comparison. Three doses of both the filtered and non-filtered CYT-1010 solutions (1, 10 and 100 μg/kg; 0.1 ml/10 g from the 0.1, 1 and 10 μg/ml solutions) were administered i.v. 5 min before the induction of the inflammation. Animals of the control group were treated with the same volume of the HPCD after or without the same filtration procedure.

## NC(Cc1ccc(O)cc1)C(=O)NC1CCCCNC(=O)C(Cc2ccccc2)NC(=O)C(Cc2c[nH]c3ccccc23)NC1=O [CYT-1010, H-Tyr-c-[D-Lys-Trp-Phe]]
[1]; 1 μg/kg i.v. (smallest/lowest dose)
  Inhibition of mustard oil-induced plasma protein extravasation: ~60%
[1]; 1 μg/kg i.v.
  Evans blue leakage in the rat hindpaw skin: 63.04 μg/g wet skin and 42.27 μg/g wet skin and 3.46 μg/g wet skin and 41.04 μg/g wet skin and 31.69 μg/g wet skin and 46.87 μg/g wet skin and 49.44 μg/g wet skin and 47.62 μg/g wet skin and 77.51 μg/g wet skin and 53.72 μg/g wet skin and 48.91 μg/g wet skin and 59.80 μg/g wet skin and 65.26 μg/g wet skin and 48.52 μg/g wet skin and 44.06 μg/g wet skin and 33.73 μg/g wet skin
  Evans blue leakage in the rat hindpaw skin, Mean: 47.31 μg/g wet skin
[1]; 10 μg/kg i.v.
  Evans blue leakage in the rat hindpaw skin: 87.67 μg/g wet skin and 79.89 μg/g wet skin and 77.63 μg/g wet skin and 87.14 μg/g wet skin and 108.49 μg/g wet skin and 73.59 μg/g wet skin and 65.69 μg/g wet skin and 78.05 μg/g wet skin and 94.66 μg/g wet skin and 36.25 μg/g wet skin and 51.07 μg/g wet skin and 41.10 μg/g wet skin and 46.38 μg/g wet skin and 91.18 μg/g wet skin and 61.48 μg/g wet skin and 77.24 μg/g wet skin
  Evans blue leakage in the rat hindpaw skin, Mean: 72.34 μg/g wet skin
[1]; 100 μg/kg i.v.
  Evans blue leakage in the rat hindpaw skin: 71.20 μg/g wet skin and 54.84 μg/g wet skin and 83.92 μg/g wet skin and 49.09 μg/g wet skin and 54.86 μg/g wet skin and 59.74 μg/g wet skin and 88.54 μg/g wet skin and 56.89 μg/g wet skin and 75.00 μg/g wet skin and 56.81 μg/g wet skin and 63.41 μg/g wet skin and 68.93 μg/g wet skin and 49.74 μg/g wet skin and 52.19 μg/g wet skin and 49.21 μg/g wet skin and 80.28 μg/g wet skin
  Evans blue leakage in the rat hindpaw skin, Mean: 63.42 μg/g wet skin
[1]; 1000 μg/kg i.v.
  Evans blue leakage in the rat hindpaw skin: 55.85 μg/g wet skin and 66.07 μg/g wet skin and 85.40 μg/g wet skin and 79.34 μg/g wet skin and 154.03 μg/g wet skin and 74.05 μg/g wet skin and 88.00 μg/g wet skin and 62.92 μg/g wet skin and 55.80 μg/g wet skin and 67.62 μg/g wet skin and 57.47 μg/g wet skin and 37.45 μg/g wet skin and 46.10 μg/g wet skin and 76.56 μg/g wet skin and 54.68 μg/g wet skin and 63.41 μg/g wet skin
  Evans blue leakage in the rat hindpaw skin, Mean: 70.30 μg/g wet skin
[1]; 1, 10, 100 and 1000 μg/kg i.v. pretreatment
  Effect on mustard oil-induced plasma protein extravasation in the rat skin: significant inhibition; also recorded: significant anti-inflammatory effect; also recorded: significantly decreased
[2]; 100 μg/ml in 20% HPCD, directly after preparation (Example 4)
  Appearance of preparation: opalescent
[2]; 100 μg/ml in 20% HPCD, on standing at 4° C. (Example 4)
  Appearance of preparation: cleared up 1 hour later
[2]; 500 μg/ml and 100 μg/ml in 20% HPCD
  Appearance of preparation: opalescent
[2]; 1 mg/ml stock in 20% HPCD in sterile distilled water
  Appearance of preparation: milky white micro-suspension
[2]; lower concentrations (below 100 μg/ml) in 20% HPCD
  Appearance of preparation: clear
